Reference: PubChem BioAssay (NCI)
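48-hour exposure; five concentrations; linearly interpolated endpoints. TGI marks complete inhibition of growth.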

What was measured:
Assay in all cases: NCI tumour cell line growth inhibition, 48 h
[1] = tested on: RPMI-8226 leukemia
[2] = tested on: 786-0 renal
[3] = tested on: SNB-75 CNS
[4] = tested on: CCRF-CEM leukemia
[5] = tested on: ACHN renal
[6] = tested on: NCI/ADR-RES ovarian
[7] = tested on: IGROV1 ovarian
[8] = tested on: HCC-2998 colon
[9] = tested on: NCI-H522 lung
[10] = tested on: MDA-MB-231 breast
[11] = tested on: CAKI-1 renal

Row | Compound | TGI [1] [µM] | TGI [2] [µM] | TGI [3] [µM] | TGI [4] [µM] | TGI [5] [µM] | TGI [6] [µM] | TGI [7] [µM] | TGI [8] [µM] | TGI [9] [µM] | TGI [10] [µM] | TGI [11] [µM]
1 | COc1cc(OC)c(C2c3cc4c(cc3OC(N3CCOCC3)C2C)OCO4)c(OC)c1 (stereo not drawn) | > 100 | > 100 | 93.2 | > 100 | 82.4 | > 100 | > 100 | > 100 | > 100 |  | 
2 | CCN(CC)C(=S)SS(=O)(=O)c1ccc(C)cc1 |  | 50.5 |  |  | > 100 | > 100 |  | > 100 |  | > 100 | 37.3
3 | O=CN(O)CC(=O)O | > 100 | > 100 | > 100 | > 100 | > 100 | > 100 | > 100 | > 100 |  | > 100 | 
4 | CCOC(=O)C1=C(C)NC(=O)N([N+](=O)[O-])C1c1ccccc1C(F)(F)F (stereo not drawn) | 72.4 |  |  | > 100 | > 100 | > 100 | > 100 |  |  | > 100 | > 100
5 | COc1cc2c3c(n(C)c(=O)c2cc1OC)-c1cc2c(cc1/C3=C/CCCCBr)OCO2 | 64.5 | > 100 | 96.1 | 7.44 | > 100 | > 100 | > 100 |  | > 100 | > 100 | > 100
6 | COC(=O)C(CCCCNC(=O)CNC(=O)OCc1ccccc1)NC(=O)C(CCCCNC(=O)CNC(=O)OCc1ccccc1)NC(=O)OCc1ccccc1 (stereo not drawn) | 53.5 | > 100 | > 100 | > 100 | > 100 |  |  | > 100 |  | > 100 | > 100
7 | COC(=O)C1=C(C(=O)OC)C2(C)CCC(=O)C1O2 (stereo not drawn) | > 10 | > 10 | > 10 | > 10 | > 10 | > 10 | > 10 | > 10 |  | > 10 | > 10
8 | C=C1CC2C(=O)N(c3ccccc3)C(=O)C2CC1n1[nH]c(=O)n(Cc2ccccc2)c1=O (stereo not drawn) | > 100 | > 100 | > 100 | > 100 | > 100 |  | > 100 | > 100 | > 100 |  | > 100
9 | CN(C)c1nc(=NCc2ccccn2)ss1 | > 10 | > 5.57 | > 10 | > 10 | > 10 | > 10 | > 10 | > 10 |  | > 10 | > 10
10 | NC(CCSCC(F)F)C(=O)O (stereo not drawn) |  | > 100 | > 100 | > 100 | > 100 |  | > 100 | > 100 | > 100 |  | > 100
11 | O=[N+]([O-])c1ccc2nc3c(nc2c1)-c1c2ccccc2cc2cccc-3c12 | 98.8 | > 100 |  | > 100 |  | 28.3 | > 28.4 | > 100 | 7.85 | 64.2 | > 40.7
12 | O=c1c2cc3c(=O)n(CCc4ccccc4CO)c(=O)c3cc2c(=O)n1CCc1ccccc1CO |  |  | > 100 | > 100 | > 100 |  | > 100 |  | > 100 |  | 
13 | NNC(=O)c1cccc2c1Oc1ccccc1S2 | > 100 | > 100 | > 100 | > 100 | > 100 | > 100 | > 100 | > 100 |  | > 100 | > 100
14 | CCOC(=O)C(C)NC(=O)N(C)C12CC3CC(CC(C3)C1)C2 (stereo not drawn) | 422 |  | 227 | 430 |  | 424 | > 500 | > 500 | > 451 |  | > 404
15 | CCC1C(=O)OCc2c1cc1n(c2=O)CCC12OCCO2 (stereo not drawn) | > 100 | > 100 | > 100 | > 100 | > 100 |  | > 100 | > 100 | > 100 |  | > 100
16 | O=c1c(Cc2ccccc2)c(-c2ccccc2)[nH]n1C1=NCCN1 | > 100 | > 100 | > 100 | > 100 | > 100 | > 100 | > 100 |  | > 100 | > 100 | > 100
17 | COP(=O)(CC(=O)C1OC(OCc2ccccc2)C(OCc2ccccc2)C(OCc2ccccc2)C1OCc1ccccc1)OC (stereo not drawn) |  | > 100 | 92.3 | > 100 | 23.2 | 90.2 | > 100 | 19.2 | > 100 | 61.1 | 19.5
18 | CCOC(=O)c1ccc(C(=O)/C(C(=O)OC(C)(C)C)=C2\CCCN2C)n1C | > 100 | > 100 | 77.8 | > 100 | > 100 | > 100 | > 100 | > 100 |  | > 100 | > 100
19 | CC1=NC(C)(C)N(O)C1(C)C | > 100 | > 100 | > 100 | > 100 | > 100 | > 100 | > 100 | > 100 | > 100 | > 100 | 
20 | O=C(NN1C(=O)CSC1c1ccc(Cl)c(Cl)c1)c1ccncc1 (stereo not drawn) | > 100 |  | > 100 | > 100 | > 100 |  | > 100 | > 100 | > 100 |  | > 100
21 | COc1cc(CCCOC2OC(COC3OCC(O)C(O)C3O)C(O)C(O)C2O)cc2cc(-c3ccc4c(c3)OCO4)oc12 (stereo not drawn) | > 175 |  | > 175 | > 69.7 |  | > 175 | > 175 | > 98.4 | > 175 |  | > 175
22 | CCOC(=O)c1csc(NC(=O)CCCC#N)n1 | > 100 |  | > 100 | > 100 | > 100 | > 100 |  | > 100 |  | > 100 | > 100
23 | O=C(c1ccccc1)[C@H]1Nc2cnccc2C2c3ccccc3CC21 (stereo partly drawn) | 34.4 | > 67 | 71.9 | 17.8 | 37.1 |  | > 58.6 | > 100 | 8.56 |  | > 73.6
24 | CN1c2ccccc2C(=O)NC12CCN(CC1COc3ccccc3O1)CC2 (stereo not drawn) | > 100 | > 100 | > 100 | > 100 | > 100 | > 100 | > 100 | > 100 |  |  | 
